# PubChem BioAssay (NCI)
# “And” between values parts separate entries of the source, which are not always exact repeats. Equal entries are not always repeated.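 Protocol summary: plate cells (96-well), add compound at 5 concentrations, incubate 48 h, interpolate endpoints linearly. GI50: concentration for 50% inhibition of growth. At the TGI there is no net growth.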
# What was measured:
# Experiment in all cases: inhibition of tumour cell growth, NCI panel, 48 h
# HL-60(TB) leukemia = test system: HL-60(TB) leukemia
# LOX IMVI melanoma = test system: LOX IMVI melanoma
# A498 renal = test system: A498 renal
# SK-MEL-5 melanoma = test system: SK-MEL-5 melanoma
# MCF7 breast = test system: MCF7 breast
# A549 NSCLC = test system: A549 NSCLC
# NCI-H23 lung = test system: NCI-H23 lung
# UACC-62 melanoma = test system: UACC-62 melanoma
# TK-10 renal = test system: TK-10 renal
# MALME-3M melanoma = test system: MALME-3M melanoma
SMILES,TGI (HL-60(TB) leukemia) [µM],TGI (LOX IMVI melanoma) [µM],TGI (A498 renal),TGI (SK-MEL-5 melanoma),TGI (MCF7 breast),TGI (A549 NSCLC) [µM],TGI (NCI-H23 lung) [µM],TGI (UACC-62 melanoma),TGI (TK-10 renal),TGI (MALME-3M melanoma),GI50 (LOX IMVI melanoma),GI50 (UACC-62 melanoma),GI50 (HL-60(TB) leukemia),GI50 (MALME-3M melanoma),GI50 (A549 NSCLC) [µM],GI50 (NCI-H23 lung) [µM],GI50 (TK-10 renal) [µM],GI50 (SK-MEL-5 melanoma),GI50 (A498 renal) [µM]
O=C(/C=C/c1ccccc1)c1cc(CN2CCOCC2)c(O)c(CN2CCOCC2)c1,27.4,19.5,28.2 µM,26 µM,32.4 µM,33.2,60,39.5 µM,55.6 µM,–,–,–,–,–,–,–,–,–,–
O=C(OCCN=c1c2ccccc2ccc2ccccc12)c1cc([N+](=O)[O-])cc([N+](=O)[O-])c1,> 100,> 100,–,> 100 µM,> 100 µM,> 100,> 100,> 100 µM,> 100 µM,66.2 µM,–,–,–,–,–,–,–,–,–
COC(=O)CCC(C)[C@H]1CCC2C3CC[C@@H]4CC5(CC[C@]4(C)C3C[C@H](OC(C)=O)[C@@]21C)OOC1(CCCCC1)OO5 (stereo partly specified),8.89,–,> 100 µM,80.9 µM,> 100 µM,> 100,> 100,> 100 µM,> 100 µM,60.3 µM,–,–,–,–,–,–,–,–,–
Cc1cccc2c1nc1n2C(=O)c2ccccc2-1,> 100,–,–,> 100 µM,> 100 µM,> 100,> 100,> 100 µM,> 100 µM,> 100 µM,–,–,–,–,–,–,–,–,–
COc1ccccc1N=Nc1c(O)ccc2ccccc12,–,> 100,62.3 µM and 89.2 µM,> 89.9 µM and 59.2 µM,> 100 µM,> 100,> 100,> 100 µM,31.8 µM and 59.1 µM,16.2 µM and > 100 µM,25.1 µM and 55.7 µM,30.4 µM and 61.4 µM,–,–,–,–,–,–,–
O=C(O)C1CCC(=O)N1C(=O)COc1cc(Cl)c(Cl)cc1Cl (stereo unspecified),–,> 100,> 100 µM,> 100 µM,–,> 100,> 100,> 100 µM,> 100 µM,–,–,–,–,–,–,–,–,–,–
O=C1c2ccccc2-c2c1c1ccccc1c(=O)n2CCCNCCNCCCn1c2c(c3ccccc3c1=O)C(=O)c1ccccc1-2,> 100,0.355,–,–,–,1.63,2.57,1.88 µM,2.08 µM,2.27 µM,< 0.01 µM,0.174 µM,3.51 µM,0.681 µM,0.0534,0.508,0.279,–,–
O=C(/C=C\c1ccccc1)Oc1ccc(/C=C2\CCC/C(=C\c3ccc(OC(=O)/C=C\c4ccccc4)cc3)C2=O)cc1,> 100,> 100,–,> 100 µM,> 100 µM,> 100,> 100,> 100 µM,> 100 µM,–,–,–,–,–,–,–,–,–,–
Cc1ccc(NC(=O)CC/C(CC(=O)C(C)(C)C)=N/NC(=O)c2cc3ccccc3cc2O)cc1C,> 100,62.9,–,–,–,–,47.6,66 µM,–,> 100 µM,–,–,–,–,–,–,–,–,–
Nc1c(C(=O)O)c2ccc([N+](=O)[O-])cc2c(=O)n1-c1nc2ccccc2s1,–,> 100,> 100 µM,> 100 µM,> 100 µM,> 100,> 100,> 100 µM,–,> 100 µM,–,–,–,–,–,–,–,–,–
COc1ccc(O[C@H](CO)C[C@@H]2COC(C)(C)O2)cc1,–,> 100,> 100 µM,> 100 µM,> 100 µM,> 100,> 100,> 100 µM,> 100 µM,> 100 µM,–,–,–,–,–,–,–,–,–
CCOC(=O)N1CCNCCN(C(=O)OCC)CCNCC1,> 100,> 100,> 100 µM,> 100 µM,> 100 µM,> 100,> 100,> 100 µM,> 100 µM,–,–,–,–,–,–,–,–,–,–
Cc1nc(C(=Nc2ccc(Br)cc2)Nn2cnnc2)no1,–,–,> 100 µM,> 100 µM,> 100 µM,> 100,> 100,> 100 µM,–,> 100 µM,–,–,–,–,–,–,–,–,–
COc1ccc(/C(C=O)=C(\Cl)c2ccc(OC)c(OC)c2)cc1,> 100,> 100,> 100 µM,> 100 µM,–,> 100,> 100,> 100 µM,> 100 µM,> 100 µM,–,–,–,–,–,–,–,–,–
CC(C)(C)C(=O)c1c(O)c2ccccc2c2ccccc2c1=O,> 100,> 100,> 100 µM,> 100 µM,> 100 µM,> 100,> 100,> 100 µM,> 100 µM,–,–,–,–,–,–,–,–,–,–
CN(C)c1cccc2c(S(=O)(=O)NCCN)cccc12,> 100,> 100,69.8 µM,> 100 µM,–,> 100,> 100,> 100 µM,–,> 100 µM,–,–,–,–,–,–,–,–,–
CCC12CCC[C@@]13C=C[C@H](O3)C(C)(C)C2=O (stereo partly specified),> 100,> 100,–,> 100 µM,–,> 100,> 100,> 100 µM,> 100 µM,> 100 µM,–,–,–,–,–,–,–,–,–
COC(=O)C(Cc1ccccc1)NC(=O)C(CNC(=O)OCc1ccccc1)C(=O)OCc1ccccc1 (stereo unspecified),> 100,–,> 100 µM,> 100 µM and 31.4 µM,> 100 µM and 79.8 µM,–,> 100,> 100 µM and 85.8 µM,–,> 100 µM,–,52.2 µM and 22.1 µM,> 100 µM and 21.6 µM,> 100 µM and 44.4 µM,–,–,–,> 100 µM and 14.5 µM,–
COc1ccc2oc(=O)c(-c3cc4c(c(C)n3)c(=O)oc3ccc(OC)cc34)cc2c1,> 100,> 100,–,> 100 µM,> 100 µM,> 100,> 100,> 100 µM,> 100 µM,–,–,–,–,–,–,–,–,–,–
CC[C@]1(c2ccc3c(c2)OCO3)C=[N+]([O-])O[C@H](OC2CCCC2(c2ccccc2)c2ccccc2)[C@@H]1OC(C)=O (stereo partly specified),12.1,> 22.4,2.94 µM,3.54 µM,> 24.1 µM,11.4,8.68,4.64 µM,11.6 µM,–,–,–,–,–,–,–,–,–,–
NCCCNc1nc2ccccc2c2c(=O)c3cc(Cl)ccc3sc12,–,–,12.1 µM,16.2 µM,–,–,–,3.16 µM,3.68 µM,–,–,1.67 µM,–,–,–,–,2.18,3.71 µM,3.22
CC1=NC(=N)N=C(C)C1N=Nc1ccc2nc(C)[nH]c2c1 (stereo unspecified),> 100,> 100,> 100 µM,–,> 100 µM,> 100,> 100,> 100 µM,> 100 µM,> 100 µM,–,–,–,–,–,–,–,–,–
Cc1n[nH]c(=O)n1-n1cccc1,–,> 100,> 100 µM,> 100 µM,> 100 µM,> 100,> 100,> 100 µM,> 100 µM,> 100 µM,–,–,–,–,–,–,–,–,–
